Laboratory results taken from patent US4177287A, “Pharmaceutical compositions of N1 -acyl-N2 -phenyldiaminopropanols and process for their preparation” (Kali-Chemie Pharma GmbH, priority 1977, dated 1979).
Counter-ions that a name gives are not always drawn.

Key:
secretion in the stomach = experiment: Effect on the secretion in the stomach of narcotized rats (determination of the pH-value); type: in vivo, rat; settings: for inhibition at 300 mg/kg: dosage 300 mg/kg p.o., narcotized rat, acetylcholine 10 mg/kg i.p. control = 100
Experimental: 3. Effect on the secretion in the stomach of narcotized rats (determinationof the pH-value)
The test is performed on narcotized (urethane narcosis) male rats, having a body weight of from 200-230 g. For this purpose N/4000-sodium hydroxide solution is perfused into the stomachs of rats at a rate of 1 ml per minute by means of a cardia- and pylorus-catheter. The pH value of the perfusate, which leaves the stomach by way of the pylorus catheter, is determined by means of a one-rod measuring system, and is continuously registered.
In order to perform a comparative control test, after a pre-run period of 20 minutes, 10 mg per kg of acetylcholine are applied intraperitoneously. The resulting comparative control value is defined as being 100.
For evaluation, the surface-integral is calculated numerically with the aid of the rule of Simpson. The degree of inhibition of the secretion is calculated from the difference between the surfaces before and after the application of the test compound.

[1] = system: indomethacine-induced ulcers; experiment: Effectiveness against indomethacine-induced ulcers in the rat; type: in vivo; settings: for inhibition at 68 mg/kg: dosage 68 mg/kg p.o.
Experimental: To at least 6 male rats, having a body-weight of from 170 to 220 g, dosages of the test compounds are administered orally in an amount of 0.5 ml of a suspension medium per 100 g animal body-weight. The animals of the blank control group received the corresponding amount by volume of the suspension medium only. One hour after application of the test compounds, a dosage of 20 mg per kg of indomethacine contained in an amount of 0.5 ml of a suspension per 100 g animal body-weight, are orally applied to each animal for producing ulcers. 24 hours after the application of indomethacine, the animals are sacrificed.
The mean value and the standard deviation of the numbers of ulcers is calculated and subsequently the inhibiting activity of the test compounds and a standard compound are calculated as percent inhibition compared with the blank control group.

in vivo = settings: mouse, po, single application, 7-day, unfed white NMRI-mice, read-out: Toxicity LD50 p.o.
Experimental: The acute 7-day-toxicity is determined after a single application per os in white NMRI-mice which had not been fed. The calculation of the LD50 is carried out by probitanalysis by means of electronic data processing (see L. Cavalli-Sforza, Gustav Fischer-Verlag, Stuttgart (1964), Grundbegriffe der Biometrie, pp. 153).

ulcer = settings: background; cited from earlier work
[2] = po, rat, indomethacine 20 mg/kg p.o., 24 hours

SMILES	inhibition at 300 mg/kg (secretion in the stomach) [%]	inhibition at 68 mg/kg [1, 2] [%]	LD50 at 168 h (in vivo) [mg/kg]	inhibition at 0.5 mg/kg (secretion in the stomach; Rattus norvegicus, ip, read-out: Inhibition of secretion in the stomach, % inhibition) [%]	inhibition of the secretion in the stomach (in words) (secretion in the stomach; at a low dosage already (footnote to Table 1))	effect on the ulcer (in words) ([1]; at the low dosage that inhibits secretion (footnote to Table 1))	inhibition at 12 mg/kg ([1]; po, dosage 12 mg/kg p.o., rat, indomethacine 20 mg/kg p.o., 24 hours) [%]	side effects in ulcer therapy (in words) (ulcer)	success in ulcer therapy (in words) (ulcer)	inhibition at 75 mg/kg ([1]; po, dosage 75 mg/kg p.o., rat, indomethacine 20 mg/kg p.o., 24 hours) [%]
COc1ccc(C(=O)NCC(O)CN(C)c2ccc(Cl)cc2)cc1OC (stereo not drawn) [Compound 1, N1-(3,4-dimethoxybenzoyl)-N2-methyl-N2-(4-chlorophenyl)-1,3-diaminopropan-2-ol]	0	44	> 6810							
CN(CC(O)CNC(=O)c1ccco1)c1ccc(Cl)cc1 (stereo not drawn) [Compound 4, N1-(2-furoyl)-N2-methyl-N2-(4-chlorophenyl)-1,3-diaminopropan-2-ol]	0	44	> 1470							
CN1[C@@H]2CC[C@H]1C[C@@H](OC(=O)C(CO)c1ccccc1)C2 (stereo partly drawn) [A, atropine sulfate, reference compound]				100	strong inhibition	does not have a sufficiently	26	side effects which occur already at low dosages	have not succeeded in ulcer therapy	
CN(CC(O)CNC(=O)c1ccccc1F)c1ccc(Cl)cc1 (stereo not drawn) [Compound 2, N1-(2-fluorobenzoyl)-N2-methyl-N2-(4-chlorophenyl)-1,3-diaminopropan-2-ol]	0	49	> 1470							
CN(CC(O)CNC(=O)c1ccccc1C(F)(F)F)c1ccc(Cl)cc1 (stereo not drawn) [Compound 3, N1-(2-trifluoromethylbenzoyl)-N2-methyl-N2-(4-chlorophenyl)-1,3-diaminopropan-2-ol]	0		> 1470							40
